# Assay results reported in patent US4843158A, “[2,2,1]Cryptand compounds that selectively bind sodium” (priority 1985, dated 1989).
# How the values were obtained:
# [1] = Cation binding titration, sodium (fluorescence and 19F NMR titrations); conditions: for Cation Binding Constant (log k), Na+: 37° C.
# Protocol: (§1) Fluorescence titrations: Ionic titrations of chelator fluorescence were performed on a Perkin Elmer 44E spectrofluorometer at a chelator concentration of 10 μM in 100 mM tris/acetic acid buffer at 37° C. Fluorescence emission from all of the chelators was monitored at a constant wavelength between 370 and 390 nm. The excitation spectra from 210 to 350 nm were recorded in the ratio mode and the proportion of M^n+ chelator complex was calculated from the fluorescence intensities at the most sensitive excitation wavelengths. The binding constants were estimated graphically from plots of log (bound/free) chelator against log free [M^n+ ]. (Slopes were 1.00±<0.05).
# (§2) NMR titrations: Nmr spectra were recorded on Bruker WH 200 or Am 400 spectrometers at 188 or 376 MHz respectively at chelator concentrations between 5 and 10 mM in the same buffer as for fluorescence titrations but containing 20% D2 O at 37° C. The spectra were obtained with an acquisition time of 1.0 sec. and a 90° pulse and were processed with resolution enhancement (-0.5 of the observed line width) and appropriate gaussian sensitivity enhancement. The proportion of M^n+ -chelator complex was calculated from the integrals of the resolved free and bound chelator ^19 F resonances, or from the chemical shift of complexes in fast exchange. The apparent affinities were determined graphically as for the fluorescence data, but using a two step iteration from the affinity derived from the fluorescence data when the dissociation constant was close to the chelator concentration in the nmr titrations.
# [2] = assay type: binding; conditions: tris/acetic acid buffer
# Protocol: as §1
# [3] = Cation induced 19F NMR chemical shift, sodium; assay type: binding; parameters: key: fast exchange; slow exchange; conditions: 37° C.
# Protocol: as §2
# [4] = Cation binding titration, potassium (fluorescence and 19F NMR titrations); conditions: 37° C.; from NMR
# Protocol: as §1
# as §2, with “The spectra were obtained with an acquisition time of 1.0 sec. and a 90° pulse and were processed with resolution enhancement (-0.5 of the observed line width) and appropriate gaussian sensitivity enhancement.” left out
# [5] = Cation induced 19F NMR chemical shift, potassium; assay type: binding; parameters: key: fast exchange; slow exchange; conditions: 37° C.
# Protocol: as §2
# [6] = Selectivity for sodium ions over potassium (and other) ions; assay type: binding
# Lymphocytes = experiment: Intracellular sodium by 19F NMR in pig mesenteric lymph node lymphocytes; assay type: cell-based
# Protocol: (§3) Lymphocytes (1 ml packed cells) were prepared from pig mesenteric lymphnodes by standard procedure in RPM1 medium. The cells suspended in RPM1 (200 ml) were treated with the tetra-acetoxymethyl ester of Example 3 (4.5 mg) in DMSO (100 μl) and incubated at 37° C. for 1 hour. The cells were isolated by centrifugation and suspended in RPM1 (20 ml) in the spectrometer probe, with continuous dialysis against oxygenated medium and the data collected. The signal appeared after 3 hours and was collected for a further 3 hours.
# cellular function = assay type: cell-based
# Protocol: as §3
smiles,measurement,setting,value
O=C(O)CN(CC(=O)O)c1cccc(N2CCN3CCOc4ccc(N(CC(=O)O)CC(=O)O)cc4OCCN(CC2)c2ccc(F)cc2OCCOc2cc(F)ccc23)c1 [Compound 7d],"Cation Binding Constant (log k), Na+",[1]; from NMR and from fluorescence at 370 nm,1.6
same,"Cation Binding Constant (log k), H+",[2],7.0
same,"Exchange (fast/slow), Na+",[3],f
O=C(O)CN(CC(=O)O)c1ccc2c(c1)OCCN1CCOCCN(CCO2)c2ccc(F)cc2OCCOc2cc(F)ccc21 [Compound 7a],"Cation Binding Constant (log k), Na+",[1]; from NMR,6
same,"Cation Binding Constant (log k), K+",[4],2.3
same,"Exchange (fast/slow), Na+",[3],s
same,"Exchange (fast/slow), K+",[5],f
CC(=O)OCOC(=O)CN(CC(=O)OCOC(C)=O)c1cccc(N2CCN3CCOc4cc(C(C)=O)c(N(CC(=O)OCOC(C)=O)CC(=O)OCOC(C)=O)cc4OCCN(CC2)c2ccc(F)cc2OCCOc2cc(F)ccc23)c1 [Example 3],Kd,[1]; read-out: dissociation constant of the sodium complex,40 mM
same,selectivity for sodium ions (in words),[6],high selectivity for sodium over all other ions and in particular over potassium
same,19F chemical shift downfield from the standard,"Lymphocytes; 37° C., standard 1,2-bis (2-amino-5-fluorophenoxy) ethane-N,N,N',N'-tetracetic acid",5.99 ppm
same,intracellular sodium ion concentration indicated,Lymphocytes; from 19F chemical shift,about 13 mM
same,adverse effect on cellular function,cellular function,has not shown any adverse effect on cellular function
CC(=O)c1cc2c(cc1N(CC(=O)O)CC(=O)O)OCCN1CCN(c3cccc(N(CC(=O)O)CC(=O)O)c3)CCN(CCO2)c2ccc(F)cc2OCCOc2cc(F)ccc21 [Compound 8d],"Cation Binding Constant (log k), Na+",[1]; from NMR,1.3
same,"Exchange (fast/slow), Na+",[3],f
